Source: patent US20080275002A1, “Method for Treatment of Hepatic Cancer” (TAIHO PHARMACEUTICAL CO., LTD., priority 2005, published 2008)

Columns and labels:
[1] = tested on: advanced hepatocellular carcinoma; test: Clinical study (Phase I/II) of oral TAC-101 in patients with advanced hepatocellular carcinoma; assay type: in vivo
From the text: Administrations were continued for patients without dose-limiting toxicities (DLT) and without aggravation of the cancer. […] Patients administered with the recommended dose in Phase I part were subjected to data analysis under assumption as Phase II part patients.
Specifically, after determination of the measurable lesions in each patient, the response was classified as complete response (CR), partial response (PR), minor response (MR), stabilization of the disease (SD), or progression of the disease (PD) for the efficacy evaluation.

[2] = tested on: hepatic cancer; details: animal model of hepatic cancer; cited from earlier work
[3] = target: T1, retinoic acid receptor α (RAR-α) (Homo sapiens, UniProt P10276); details: activates transcription through the receptor; cited from earlier work
T1 sequence (P10276 1-462): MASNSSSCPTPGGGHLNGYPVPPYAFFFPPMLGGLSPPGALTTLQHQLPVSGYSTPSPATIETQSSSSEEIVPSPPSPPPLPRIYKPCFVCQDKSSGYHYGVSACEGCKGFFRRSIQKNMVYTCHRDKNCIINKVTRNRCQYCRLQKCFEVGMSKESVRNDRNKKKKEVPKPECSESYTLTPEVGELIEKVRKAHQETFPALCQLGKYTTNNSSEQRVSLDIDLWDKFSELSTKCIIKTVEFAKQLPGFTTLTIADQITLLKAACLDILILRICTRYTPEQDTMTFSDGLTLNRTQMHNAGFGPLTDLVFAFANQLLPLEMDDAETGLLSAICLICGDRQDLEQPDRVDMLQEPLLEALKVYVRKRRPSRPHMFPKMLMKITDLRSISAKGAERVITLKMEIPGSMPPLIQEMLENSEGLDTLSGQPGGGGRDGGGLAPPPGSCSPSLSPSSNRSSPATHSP

[4] = tested on: lung cancer; details: high dose, 60 to 80 mg/day, patients with lung cancer; cited from earlier work
[5] = 20 mg/day, side effects approximately grade 2

SMILES: C[Si](C)(C)c1cc(C(=O)Nc2ccc(C(=O)O)cc2)cc([Si](C)(C)C)c1 [TAC-101, 4-[3,5-Bis(trimethylsilyl)benzamido]benzoic acid]
- therapy terminated because of grade 3 increase of aspartate aminotransferase (AST) ([1]; 20 mg/day): one
- therapy terminated because of onset of grade 3 venous thrombosis embolism (VTE) ([1]; 20 mg/day): one
- therapy terminated because of onset of grade 4 pulmonary embolism (PE) ([1]; 20 mg/day): one
- patients developing dose-limiting toxicity (DLT) ([1]; 20 mg/day oral, among 7 patients, pancreatitis and fatigue): one
- share of patients with TTF 12 weeks or longer ([1]; 20 mg/day, 9/21): 42%
- PR or CR case (WHO criteria) ([1]; 20 mg/day, 21 evaluable patients): not observed
- time to treatment failure (TTF) ([1]; 20 mg/day, all 21 patients): 6.6 weeks
- patients to whom four or more courses were applicable, progress of the hepatic cancer significantly arrested ([1]; 20 mg/day, of 21 evaluable patients): 9 patients
- patients with TTF 12 weeks or longer (progress arrested, no deterioration) ([1]; 20 mg/day, of 21 patients): 9 patients
- AST increase, incidence [1, 5]: 14.3%
- AST increase, number of patients [1, 5]: 4 patients
- alanine aminotransferase (ALT), incidence [1, 5]: 14.3%
- alanine aminotransferase (ALT), number of patients [1, 5]: 4 patients
- anorexia, incidence [1, 5]: 10.7%
- anorexia, number of patients [1, 5]: 3 patients
- dermatitis, incidence [1, 5]: 21.4%
- dermatitis, number of patients [1, 5]: 6 patients
- fatigue, incidence [1, 5]: 32%
- fatigue, number of patients [1, 5]: 9 patients
- increased triglycerides, incidence [1, 5]: 28.6%
- increased triglycerides, number of patients [1, 5]: 8 patients
- myalgias, incidence [1, 5]: 28.6%
- myalgias, number of patients [1, 5]: 8 patients
- nausea, incidence [1, 5]: 14.3%
- nausea, number of patients [1, 5]: 4 patients
- maximum tolerance dose (MTD) ([1]; 14 days daily oral administration, 7 days withdrawal): 20 mg/day
- antitumor effects [2]: demonstrated
- binding to RAR-α [3]: binding selectively
- deep vein thrombosis (DVT), dose-limiting toxicity [4]: frequently induces deep vein thrombosis
- tumor response [4]: tumor reducing effects (PR and CR)
